Test results reported in paper PMC10547238, “Discovery of Potent Tetrazole Free Fatty Acid Receptor 2 Antagonists” (Journal of Medicinal Chemistry, 2023).
Entries after “also recorded” stand apart in the source; their conditions may differ.

Assays:
human neutrophils = assay: Human neutrophil respiratory burst (luminol-amplified chemiluminescence); assay type: cell-based; details: for IC50: Neutrophil, read-out: pIC50 on C3-induced respiratory burst (converted)
Experimental: Human peripheral blood neutrophils were isolated from healthy volunteer buffy coats. Initially, the majority of red blood cells were sedimented using 2% w/v dextran sulfate in a 0.9% NaCl solution for 15 min. Next, the upper phase was centrifuged for 10 min at 200g and the supernatant was discarded. The pellet was resuspended in 0.9% NaCl solution, and neutrophils were separated from here using Lymphoprep (STEMCELL Technologies #07851) and density-gradient centrifugation (400g for 30 min). Then, the remaining red blood cells were subjected to hypotonic lysis by addition of 10 mL of sterile water followed by addition of 10 mL of 1.8% NaCl solution. Cell count and viability were determined using trypan blue and a Countess cell counter. Isolated neutrophils were characterized by May–Grunwald–Giemsa staining and immediately used for migration assays or assessment of respiratory burst.
Human neutrophil respiratory burst was assessed via luminol-amplified chemiluminescence. Freshly isolated human neutrophils were seeded in a concentration of 100,000 cells/well in a flat bottom, white 96-well plate (PerkinElmer cat #6005680). Cells were pre-incubated for 30 min with test compounds or vehicles (DMSO) in HBSS in a humidified atmosphere at 37 °C and 5% CO2. Next, luminol (Merck cat #521-31-3) was added to a final concentration of 10 μM. Lastly, the vehicle or the FFA2 agonist, sodium propionate, was added to a final concentration of 1 mM. Immediately thereafter, chemiluminescence was evaluated with an LUMIstar Omega microplate reader (PerkinElmer) where light emission was recorded for 1 s/well every 60 s for 1 h at 37 °C. Experiments were performed in triplicate and analyzed using GraphPad Prism (version 9). Fold response was calculated as the relative luminescence of samples compared to the vehicle control.

Microsomal stability = assay type: in vitro ADME, mouse
Experimental: The assay was performed in duplicates essentially as described previously,[58] using male CD1 mouse liver microsomes (Thermo Fischer Scientific, 20 mg/mL), NADPH-regenerating agent Solution A and Solution B (Promega), potassium phosphate buffer (100 mM, pH 7.4), and test compounds (1 mM, diluted from 10 mM DMSO stock in the buffer). The samples were analyzed in an Agilent 6130 Mass Spectrometer instrument using electron spray ionization (ESI) coupled to an Agilent 1200 HPLC system (ESI-LCMS) with a C18 reverse phase column (Zorbax Eclipse XBD-C18, 4.6 mm × 50 mm) using a linear gradient of the binary solvent system of 100% mobile phase A (water:MeCN:formic acid, 95:5:0.1 v/v%) to 100% mobile phase B (MeCN:formic acid, 100:0.1 v/v %) in 6 min, with a flow rate of 1 mL/min.
To a pre-warmed solution of potassium phosphate buffer (135.6 μL) in an Eppendorf tube at 37 °C were added Solution A (7.5 μL), Solution B (1.5 μL), microsomes (3.9 μL), and the test compound (1 mM, 1.5 μL, final concentration = 10 μM). The tube was briefly vortexed and incubated at 37 °C in a thermomixer. At 0, 15, 30, 45, and 60 min, 25 μL of each sample was transferred to an ice-cold solution containing an internal standard (5 μM in MeCN, 12.5 μL). The sample was briefly vortexed and centrifuged for 5 min at 10.000g. The supernatant (25 μL) was transferred to HPLC vial and analyzed by ESI-LCMS in single ion mode. The data was analyzed using GraphPad Prism (version 9).

hFFA3 = target: T1, hFFA3 (Homo sapiens, UniProt O14843); assay: cAMP assay, Flp-In T-Rex 293 cells expressing hFFA3-eYFP; assay type: cell-based; details: at 10 μM
T1 construct: expressed in transfected cells; host or cells: Flp-In T-Rex 293 cells, doxycycline-induced
T1 sequence (O14843 1-346): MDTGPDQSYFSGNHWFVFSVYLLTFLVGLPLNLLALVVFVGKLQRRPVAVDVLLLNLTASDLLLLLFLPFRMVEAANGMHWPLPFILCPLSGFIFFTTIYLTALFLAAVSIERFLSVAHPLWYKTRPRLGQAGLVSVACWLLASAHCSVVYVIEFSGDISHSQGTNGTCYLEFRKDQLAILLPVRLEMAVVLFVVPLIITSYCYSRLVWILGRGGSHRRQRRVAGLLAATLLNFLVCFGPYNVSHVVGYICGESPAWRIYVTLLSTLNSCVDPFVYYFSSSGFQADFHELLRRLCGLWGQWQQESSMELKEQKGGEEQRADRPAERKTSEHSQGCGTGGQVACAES
Experimental: The hFFA2-eYFP and hFFA3-eYFP Flp-In T-Rex 293 cell lines were maintained in Dulbecco’s modified Eagle mMedium (DMEM, ThermoFisher #11965092) supplemented with 10% (v/v) fetal bovine serum, 100 U/mL penicillin, 100 μg/mL streptomycin, 5 μg/mL blasticidin S, and 200 μg/mL hygromycin B and incubated at 37 °C and 5% CO2 in a humidified incubator. Cells were passaged at 70–80% confluency.
To determine the compound’s ability to activate or inhibit the Gi-coupled FFA2 or FFA3, intracellular cAMP concentrations were determined using Flp-In T-Rex293 cells induced to express hFFA2-eYFP or hFFA3-eYFP. […]
In agonist mode, the next day, the agonist was added in Hank’s balanced salt solution supplemented with 20 mM HEPES, 1 mM MgCl2, and 1 mM CaCl2 at pH 7.4 (HBSS) together with 50 μM 3-isobutyl-1-methylxanthine (IBMX) and 3 μM forskolin. After 25 min pf incubation at rt, agonist-induced intracellular cAMP production was assessed by stopping the reactions and measuring the output with an Envision plate reader using a time-resolved fluorescence protocol, measuring the light emission at 620 and 665 nm.
In antagonist mode, the cells were pre-incubated for 20 min with antagonist test compounds in HBSS together with 50 μM IBMX at rt. […] All analyses were performed in triplicate and analyzed using GraphPad Prism (version 9).

[1] = % recovered after 60 min, mouse liver microsomes

Row | IC50 (human neutrophils; propionate (C3) 1 mM) [nM] | microsomal stability (Microsomal stability; [1]) [%] | activity on FFA3 (hFFA3) | in vitro clearance (Microsomal stability; mouse liver microsomes) | microsomal stability (Microsomal stability; supplementary CSV) [%] | SMILES | effect on respiratory burst induced by fMLP (human neutrophils; fMLP-induced) | inhibition of propionate-induced respiratory burst (human neutrophils; propionate (C3) 1 mM)
1 | 46.8 | 91 | – | – | – | O=C(O)C[C@H](Cc1ccc(C(F)(F)F)cc1)NC(=O)Cc1cccc(Cl)c1 [Compound 3, reference compound] | – | –
2 | 5.75 | 93 | devoid of activity | low in vitro clearance | 93 | COc1cccc(CC(=O)N[C@@H](Cc2ccc(C(F)(F)F)cc2)Cc2nnn[nH]2)c1 [Compound 16l, (S)-N-(1-(1H-Tetrazol-5-yl)-3-(4-(trifluoromethyl)phenyl)propan-2-yl)-2-(3-methoxyphenyl)acetamide] | did not exhibit any effect | completely inhibit; also recorded: full inhibition; also recorded: complete inhibition
3 | – | 92 | devoid of activity | low in vitro clearance | 92 | O=C(Cc1cncc(Br)c1)N[C@@H](Cc1ccc(C(F)(F)F)cc1)Cc1nnn[nH]1 [Compound 16w, (S)-3-(2-((1-(1H-Tetrazol-5-yl)-3-(4-(trifluoromethyl)phenyl)propan-2-yl)amino)-2-oxoethyl)-5-bromopyridin-1-ium 2,2,2-trifluoroacetate] | – | –
